Values of other authors, collected in EP1197217A1, “Use of sodium nitroprussiate in obstetrics and gynaecology” (Ibsa Institut Biochimique S.A., priority 2000, dated 2002).
Values joined by “and” are separate entries in the source; they are usually repeats but may differ in a detail not shown here. Equal entries are not always repeated.

System: cervix
Settings: in vivo

SMILES: O=[N+]([O-])O[C@@H]1CO[C@H]2[C@@H]1OC[C@@H]2O [isosorbide mononitrate]
- cumulative median force necessary to dilate the cervix to 8 mm: 40 newtons and 36 newtons
